# Test results published in patent US12384800B2, “Antitumoral compounds” (priority 2017, dated 2025).
# Legend:
# [1] = tested on: MDA-MB-231 tumors; assay: Human breast xenograft, tumor volume; details: iv Days 0, 7 and 14, compound C 3.0 mg/kg, 4-S […], 12-S […]
# [2] = tested on: A2780 tumors; assay: Human ovarian xenograft, tumor volume; details: iv Days 0, 7 and 14, compound C 3.0 mg/kg, 4-S […], 12-S […]
# Experimental: (§7) Female athymic nu/nu mice (Harlan Laboratories Models, S.L. Barcelona, Spain or Envigo, Spain) were utilized for all experiments. Animal were housed in individually ventilated cages Sealsafe® Plus, Techniplast S.P.A.), up to ten per cage on a 12-hour light-dark cycle at 21-23° C. and 40-60% humidity. […] Animals were acclimated for at least 5 days prior to tumor implantation with a tumor cell suspension.
# Culture cells were passaged every 3 to 5 days upon reaching confluence. Each animal was subcutaneously implanted (on the right flank using 26G needle and a 1 cc syringe) at 4-6 weeks of age with 10×10^6 A2780 cells suspended in 0.05 mL of a solution consisting of 50% Matrigel® (Corning Incorporated Life Sciences) and 50% medium without serum or antibiotics.
# (§8) Treatment tolerability was assessed by monitoring body weight evolution, clinical signs of systemic toxicity, as well as evidences of local damage in the injection site.
# (§9) In Xenograft Studies with Other Cell Lines: • Tumor volume was calculated using the equation (a·b^2)/2, where a: length (longest diameter) and b: width (shortest diameter) were measured in mm by using digital caliper (Fowler Sylvac, S235PAT).
# (§10) Treatments producing >20% lethality and/or 20% net body weight loss were considered toxic.
# [3] = tested on: HGC27 tumors; assay: Human gastric xenograft, tumor volume; details: iv Days 0, 7 and 14, compound C 3.0 mg/kg, 4-S […], 12-S […]
# [4] = tested on: H460 tumors; assay: Human lung (NSCLC) xenograft, tumor volume; details: iv Days 0, 7 and 14, compound C 3.0 mg/kg, 4-S […], 12-S […]
# Experimental: as §7
# H460 cells were maintained in vitro at 37° C. with 5% CO2 in Dulbecco's Modified Eagle's Medium (Sigma-Aldrich, Co). Culture cells were passaged every 3 to 5 days upon reaching confluence. Each animal was subcutaneously implanted (on the right flank using 26G needle and a 1 cc syringe) at 4-6 weeks of age with 5×10^6 H460 cells suspended in 0.05 mL of a solution consisting of 50% Matrigel® (Corning Incorporated Life Sciences) and 50% medium without serum or antibiotics.
# as §8, §9, §10
# Tables and figures summarize the data obtained from complete experimental groups, i.e. those groups keeping the initial number of animals, n=8-10.
# [5] = tested on: HT1080 tumors; assay: Human fibrosarcoma xenograft, total diameter (tumor + leg); details: iv Days 0, 7 and 14, compound C 3.0 mg/kg, 4-S […], 12-S […]
# [6] = tested on: A549 cells (lung carcinoma, NSCLC); assay: cells; details: A549, SRB; for GI50: 72 hours treatment; for TGI: total cell growth inhibition; for TGI / CC50: 72 hours; for CC50: read-out: LC50, 50% net cell killing
# From the text: (§1) The aim of this assay is to evaluate the in vitro cytostatic (ability to delay or arrest tumor cell growth) or cytotoxic (ability to kill tumor cells) activity of the samples being tested.
# (§2) A colorimetric assay, using sulforhodamine B (SRB) reaction has been adapted to provide a quantitative measurement of cell growth and viability (following the technique described by Skehan et al. J. Natl. Cancer Inst. 1990, 82, 1107-1112). Another colorimetric assay based on 3-(4,5-Dimethylthiazol-2-yl)-2,5-diphenyltetrazolium bromide (MTT) reduction to a purple formazan has been also used to assess the antiproliferative activity (following the technique described by Mosmann et al. J. Immunol. Meth. 1983, 65, 55-63).
# (§3) These forms of assays employ 96-well cell culture microplates following the standards of the American National Standards Institute and the Society for Laboratory Automation and Screening (ANSI SLAS 1-2004 (R2012) Oct. 12, 2011. All the cell lines used in this study were obtained from the American Type Culture Collection (ATCC) and derive from different types of human cancer.
# (§4) A549, HT29, MDA-MB-231 and PSN1 cells were maintained in Dulbecco's Modified Eagle Medium (DMEM) while PC-3 and 22Rv1 cells were maintained in Roswell Park Memorial Institute Medium (RPMI). All cell lines were supplemented with 10% Fetal Bovine Serum (FBS), 2 mM L-glutamine, 100 U/mL penicillin, and 100 […] at 37° C., 5% CO2 and 98% humidity. For the experiments, cells were harvested from subconfluent cultures using trypsinization and resuspended in fresh medium before counting and plating.
# (§5) A549, HT29, MDA-MB-231 and PSN1 cells were seeded in 96 well microtiter plates, at 5000 cells per well in aliquots of 150 μL, and allowed to attach to the plate surface for 18 hours (overnight) in drug free medium. After that, one control (untreated) plate of each cell line was fixed (as described below) and used for time zero reference value. Culture plates were then treated with test compounds (50 μL aliquots of 4× stock solutions in complete culture medium plus 4% DMSO) using ten ⅖ serial dilutions (concentrations ranging from 10 to 0.003 μg/mL) and triplicate cultures (1% final concentration in DMSO). After 72 hours treatment, the antitumor effect was measured by using the SRB methodology: Briefly, cells were washed twice with PBS, fixed for 15 min in 1% glutaraldehyde solution at room temperature, rinsed twice in PBS, and stained in 0.4% SRB solution for 30 min at room temperature. Cells were then rinsed several times with 1% acetic acid solution and air-dried at room temperature.
# (§6) Effects on cell growth and survival were estimated by applying the NCI algorithm (Boyd M R and Paull K D. Drug Dev. Res. 1995, 34, 91-104). The values obtained in triplicate cultures were fitted by nonlinear regression to a four-parameters logistic curve by nonlinear regression analysis.
# [7] = tested on: HT29 cells (colorectal adenocarcinoma); assay: cells; details: HT29, SRB; for GI50: 72 hours treatment; for TGI: total cell growth inhibition; for TGI / CC50: 72 hours; for CC50: read-out: LC50, 50% net cell killing
# From the text: as §1, §2, §3, §4, §5, §6
# [8] = tested on: MDA-MB-231 cells (breast adenocarcinoma); assay: cells; details: MDA-MB-231, SRB; for GI50: 72 hours treatment; for TGI: total cell growth inhibition; for TGI / CC50: 72 hours; for CC50: read-out: LC50, 50% net cell killing
# From the text: as §1, §2, §3, §4, §5, §6
# [9] = tested on: PSN1 cells (pancreas adenocarcinoma); assay: cells; details: PSN1, SRB; for GI50: 72 hours treatment; for TGI: total cell growth inhibition; for TGI / CC50: 72 hours; for CC50: read-out: LC50, 50% net cell killing
# From the text: as §1, §2, §3, §4, §5, §6
compound,measurement,setting,value
COc1c(C)cc2c(c1O)[C@@H]1[C@@H]3[C@@H]4SC[C@]5(N[C@H](CN)Cc6c5[nH]c5ccccc65)C(=O)OC[C@@H](c5c6c(c(C)c(OC(C)=O)c54)OCO6)N3[C@@H](O)[C@H](C2)N1C [Compound 12-S],Median Tumor Volume,[1]; Day 2.0,229.9 mm^3
same,Median Tumor Volume,[1]; Day 5.0,290.5 mm^3
same,Median Tumor Volume,[1]; Day 7.0,398.2 mm^3
same,Median Tumor Volume,[1]; Day 9.0,508.9 mm^3
same,Median Tumor Volume,[1]; Day 12.0,602.5 mm^3
same,Median Tumor Volume,[1]; Day 14.0,751.0 mm^3
same,Median Tumor Volume,[1]; Day 16.0,977.7 mm^3
same,Median Tumor Volume,[1]; Day 19.0,1252.6 mm^3
same,Median Tumor Volume,[1]; Day 21.0,1560.7 mm^3
same,Median Tumor Volume,[1]; Day 23.0,2005.9 mm^3
same,Median Tumor Volume,[1]; Day 26.0,2066.2 mm^3
same,Median Tumor Volume,[2]; Day 2.0,262.1 mm^3
same,Median Tumor Volume,[2]; Day 5.0,628.6 mm^3
same,Median Tumor Volume,[2]; Day 7.0,976.3 mm^3
same,Median Tumor Volume,[2]; Day 9.0,1387.5 mm^3
same,Median Tumor Volume,[2]; Day 12.0,1666.0 mm^3
same,Median Tumor Volume,[3]; Day 2.0,411.9 mm^3
same,Median Tumor Volume,[3]; Day 5.0,834.1 mm^3
same,Median Tumor Volume,[3]; Day 7.0,1176.6 mm^3
same,Median Tumor Volume,[3]; Day 9.0,1531.6 mm^3
same,Median Tumor Volume,[3]; Day 12.0,2030.2 mm^3
same,Median Tumor Volume,[4]; Day 2.0,460.5 mm^3
same,Median Tumor Volume,[4]; Day 5.0,922.4 mm^3
same,Median Tumor Volume,[4]; Day 7.0,1252.1 mm^3
same,Median Tumor Volume,[4]; Day 9.0,1409.4 mm^3
same,Median Tumor Volume,[4]; Day 12.0,1531.7 mm^3
same,Total diameter (tumor + leg),[5]; Day 2.0,8.2 mm
same,Total diameter (tumor + leg),[5]; Day 5.0,8.6 mm
same,Total diameter (tumor + leg),[5]; Day 7.0,9.5 mm
same,Total diameter (tumor + leg),[5]; Day 9.0,10.0 mm
same,Total diameter (tumor + leg),[5]; Day 12.0,11.2 mm
same,Total diameter (tumor + leg),[5]; Day 14.0,11.7 mm
same,Total diameter (tumor + leg),[5]; Day 16.0,12.7 mm
same,Total diameter (tumor + leg),[5]; Day 19.0,13.5 mm
same,Total diameter (tumor + leg),[5]; Day 21.0,14.4 mm
same,Total diameter (tumor + leg),[5]; Day 23.0,16.5 mm
"COc1c(C)cc2c(c1O)[C@@H]1[C@@H]3[C@@H]4SC[C@]5(N[C@@H](C)Cc6c5[nH]c5ccccc65)C(=O)OC[C@@H](c5c6c(c(C)c(OC(C)=O)c54)OCO6)N3[C@@H](C#N)[C@H](C2)N1C [B, reference compound]",GI50,[6],20.6 nM
same,TGI,[6],2.19E−08 Molar
same,CC50,[6],> 129 nM
same,GI50,[7],8.48 nM
same,TGI,[7],9.13E−09 Molar
same,CC50,[7],> 129 nM
same,GI50,[8],9 nM
same,TGI,[8],1.67E−08 Molar
same,CC50,[8],34.7 nM
same,GI50,[9],19.3 nM
same,TGI,[9],2.06E−08 Molar
same,CC50,[9],23.1 nM
COc1ccc2[nH]c3c(c2c1)C[C@@H](CO)N[C@]31CS[C@@H]2c3c(OC(C)=O)c(C)c4c(c3[C@H](COC1=O)N1[C@@H]2[C@H]2c3c(cc(C)c(OC)c3O)C[C@@H]([C@@H]1C#N)N2C)OCO4 [Compound 18-S],GI50,[6],1.7 nM
same,TGI,[6],3.03E−09 Molar
same,TGI,[7],1.34E−09 Molar
same,TGI,[8],1.34E−09 Molar
same,CC50,[8],1.58 nM
same,GI50,[9],0.959 nM
same,TGI,[9],1.34E−09 Molar
COc1c(C)cc2c(c1O)[C@@H]1[C@@H]3[C@@H]4SC[C@]5(NCCc6c5oc5ccccc65)C(=O)OC[C@@H](c5c6c(c(C)c(OC(C)=O)c54)OCO6)N3[C@@H](C#N)[C@H](C2)N1C [Compound 31],GI50,[6],19.6 nM
same,TGI,[6],2.09E−08 Molar
same,CC50,[6],23.5 nM
same,GI50,[7],10.5 nM
same,TGI,[7],1.57E−08 Molar
same,CC50,[7],> 131 nM
same,GI50,[8],8.89 nM
same,TGI,[8],1.70E−08 Molar
same,CC50,[8],35.3 nM
same,GI50,[9],6.8 nM
same,TGI,[9],1.57E−08 Molar
same,CC50,[9],43.1 nM
COc1c(C)cc2c(c1O)[C@@H]1[C@@H]3[C@@H]4SC[C@]5(N[C@H](COC(C)=O)Cc6c5[nH]c5ccccc65)C(=O)OC[C@@H](c5c6c(c(C)c(OC(C)=O)c54)OCO6)N3[C@@H](C#N)[C@H](C2)N1C [Compound 3a-S],GI50,[6],3.11 nM
same,TGI,[6],3.23E−09 Molar
same,CC50,[6],> 120 nM
same,GI50,[7],2.99 nM
same,TGI,[7],3.23E−09 Molar
same,CC50,[7],> 120 nM
same,GI50,[8],2.87 nM
same,TGI,[8],3.59E−09 Molar
same,CC50,[8],4.9 nM
same,GI50,[9],2.15 nM
same,TGI,[9],3.59E−09 Molar
same,CC50,[9],12 nM
"COc1c(C)cc2c(c1O)[C@@H]1[C@@H]3[C@@H]4SC[C@]5(N[C@H](C(=O)O)Cc6c5[nH]c5ccccc65)C(=O)OC[C@@H](c5c6c(c(C)c(OC(C)=O)c54)OCO6)N3[C@@H](C#N)[C@H](C2)N1C [Compound 14-S, reference compound]",GI50,[6],> 124 nM
same,TGI,[6],>1.24E−07 Molar
same,CC50,[6],> 124 nM
same,GI50,[7],121 nM
same,TGI,[7],>1.24E−07 Molar
same,CC50,[7],> 124 nM
same,GI50,[8],54.5 nM
same,TGI,[8],1.13E−07 Molar
same,CC50,[8],> 124 nM
same,GI50,[9],> 124 nM
same,TGI,[9],>1.24E−07 Molar
same,CC50,[9],> 124 nM
COc1ccc2[nH]c3c(c2c1)C[C@@H](CN)N[C@]31CS[C@@H]2c3c(OC(C)=O)c(C)c4c(c3[C@H](COC1=O)N1[C@@H]2[C@H]2c3c(cc(C)c(OC)c3O)C[C@@H]([C@@H]1C#N)N2C)OCO4 [Compound 26-S],GI50,[6],11.2 nM
same,TGI,[6],2.19E−08 Molar
same,CC50,[6],> 122 nM
same,GI50,[7],2.79 nM
same,TGI,[7],3.16E−09 Molar
same,CC50,[7],> 122 nM
same,GI50,[8],1.34 nM
same,TGI,[8],1.94E−09 Molar
same,CC50,[8],3.89 nM
same,GI50,[9],3.04 nM
same,TGI,[9],3.28E−09 Molar
same,CC50,[9],3.52 nM
COc1c(C)cc2c(c1O)[C@@H]1[C@@H]3[C@@H]4SC[C@]5(N[C@H](CO)Cc6c5oc5ccccc65)C(=O)OC[C@@H](c5c6c(c(C)c(OC(C)=O)c54)OCO6)N3[C@@H](C#N)[C@H](C2)N1C [Compound 38-S],GI50,[6],8.05 nM
same,TGI,[6],8.55E−09 Molar
same,CC50,[6],9.44 nM
same,GI50,[7],4.53 nM
same,TGI,[7],7.05E−09 Molar
same,CC50,[7],> 126 nM
same,GI50,[8],2.52 nM
same,TGI,[8],4.28E−09 Molar
same,CC50,[8],7.8 nM
same,GI50,[9],5.03 nM
same,TGI,[9],8.18E−09 Molar
same,CC50,[9],15.1 nM
